Test results: patent publication US20130252930A1 (BIOMARIN PHARMACEUTICAL INC., priority 2010, published 2013)
Where two headings read alike, the source gives them in different places.

Key:
[1] = target: T1, CYP17 (human testicular microsome) (Homo sapiens, UniProt P05093); assay: CYP17 enzymatic assay (IC50) (Biological Example 4); type: biochemical; conditions: human testicular microsome
T1 construct: using microsomal fraction from human testis (Celsis Cat #S00110) as the enzyme source; tissue Celsis S00110; host or cells: human testis microsomal fraction
T1 sequence (P05093 1-508): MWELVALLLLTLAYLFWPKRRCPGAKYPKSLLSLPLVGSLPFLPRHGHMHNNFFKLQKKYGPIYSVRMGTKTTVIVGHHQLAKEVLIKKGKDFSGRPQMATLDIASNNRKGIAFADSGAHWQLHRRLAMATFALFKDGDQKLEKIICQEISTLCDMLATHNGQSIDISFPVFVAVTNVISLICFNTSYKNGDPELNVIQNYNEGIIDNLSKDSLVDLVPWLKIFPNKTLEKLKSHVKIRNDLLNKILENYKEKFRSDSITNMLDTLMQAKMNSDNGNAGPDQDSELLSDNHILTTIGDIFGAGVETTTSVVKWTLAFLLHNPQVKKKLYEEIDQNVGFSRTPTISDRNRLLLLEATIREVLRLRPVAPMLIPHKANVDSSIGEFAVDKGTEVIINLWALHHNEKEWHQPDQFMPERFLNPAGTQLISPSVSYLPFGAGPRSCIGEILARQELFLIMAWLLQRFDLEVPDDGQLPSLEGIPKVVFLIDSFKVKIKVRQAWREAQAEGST

CYP17 (H295R cells) = target: T2, CYP17 (H295R cells) (Homo sapiens, UniProt P05093); assay: CYP17 cellular assay (IC50), testosterone in H295R cells (Biological Example 7); type: cell-based; conditions: H295R cells
T2 construct: endogenous in cells; host or cells: H295R cells
T2 sequence (P05093 1-508): T1 sequence (P05093 1-508)
Outline: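 Testosterone in the medium was quantified by ELISA after 24 h at 37 °C with test compound (final 100, 10, 1, 0.1 nM; serum-free DMEM/F-12, ITS+, 0.1% methanol). The H295R cells had been seeded and grown 24 h beforehand; vehicle wells served as control.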

[2] = system: rat Cyp11B enzyme (rat adrenal mitochondria); assay: CYP11B enzymatic assay (% inhibition at 100 nM) (Biological Example 9); type: biochemical; conditions: for Biological Example No. 9: CYP11B percent inhibition at 100 nM: 100 nM compound, cortisol by ELISA
Outline: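 Sprague Dawley rat adrenal mitochondria were incubated with compound at 100 nM, 0.5 mM NADPH and 0.1 μM 11-deoxycortisol (pH 7.4 Tris buffer) for 60 min at 37 °C. Cortisol was measured by ELISA and corrected by subtracting the no-NADPH background. % inhibition is relative to the no-compound reaction.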

[3] = DHEA by ELISA, read-out: Biological Example No. 4: CYP17 enzymatic assay IC50
[4] = testosterone by ELISA, 24 hours, read-out: Biological Example No. 7: CYP17 cellular assay IC50

C[C@]12CC[C@H]3[C@@H](CC=C4C[C@@H](O)CC[C@@]43C)C1=CC=C2c1cccnc1 [Compound 79, (3S,10R,13S)-10,13-dimethyl-17-(pyridin-3-yl)-2,3,4,7,8,9,10,11,12,13-decahydro-1H-cyclopenta[a]phenanthren-3-ol]
IC50 [1, 3]: < 11 nM
IC50 (CYP17 (H295R cells); [4]): < 15 nM
Biological Example No. 9: CYP11B percent inhibition at 100 nM [2]: T (T means the compound had a percent inhibition of less than 32% when tested at 100 nM)

C[C@]12CC(O)C[C@@H]1CC[C@@H]1[C@@H]2CC[C@]2(C)C(n3ccnc3)=CC[C@@H]12 (stereo partly drawn) [Compound 109, (3aS,5aS)-6-(1H-imidazol-1-yl)-3a,5a-dimethyl-1,2,3,3a,3b,4,5,5a,8,8a,8b,9,10,10a-tetradecahydrodicyclopenta[a,f]naphthalen-2-ol]
IC50 [1, 3]: < 11 nM
IC50 (CYP17 (H295R cells); [4]): < 15 nM
Biological Example No. 9: CYP11B percent inhibition at 100 nM [2]: U (U means the compound had a percent inhibition of greater than or equal to 32%)

CC(=O)NC1CC[C@@]2(C)C(=CCC3C2CC[C@]2(C)C(n4ccnc4)=CCC32)C1 (stereo partly drawn) [Compound 237, N-((10R,13S)-17-(1H-imidazol-1-yl)-10,13-dimethyl-2,3,4,7,8,9,10,11,12,13,14,15-dodecahydro-1H-cyclopenta[a]phenanthren-3-yl)acetamide]
IC50 ([1]; read-out: CYP17 enzymatic assay IC50 (Biological Example No. 4)): < 11 nM
IC50 (CYP17 (H295R cells); testosterone, read-out: CYP17 cellular assay IC50 (Biological Example No. 7)): < 15 nM
CYP11B enzymatic assay % inhibition at 100 nM (Biological Example No. 9) ([2]; compound at 100 nM): U (U means the compound had a percent inhibition of greater than or equal to 32%)
